Assay results from PMC4447944 (The Journal of Biological Chemistry, 2015).

How the values were obtained:
[1] = test system: p53 Lys370 methylation; test: Western blot time course and subcellular fractionation, KYSE-150 cells stably expressing FLAG-SMYD2; assay type: cell-based, human
Method: 5 × 10^6 KYSE-150 cells or KYSE-150 cells stably overexpressing SMYD2 were harvested and separated into subcellular fractions using the Subcellular Protein Fractionation kit for cultured cells (Thermo Scientific) according to the manufacturer's instructions. Lysates were reduced, boiled, subjected to 4–20% SDS-PAGE, and transferred to nitrocellulose membranes. […] Each membrane was then incubated with ECL anti-rabbit or anti-mouse IgG HRP-linked whole antibody (GE Healthcare) followed by detection with SuperSignal West Femto Maximum Sensitivity Substrate (Thermo Scientific) on a ChemiDoc^TM XRS system (Bio-Rad). Primary tumor lysates in RIPA buffer were obtained from Crownbio Bioscience. Cancer cell lines were obtained from the German Collection of Microorganisms and Cell Cultures GmbH (DSMZ), the Korean Cell Line Bank, the Japanese Collection of Research Bio-Resources, or the American Type Culture Collection (ATCC). Tumor cells were lysed in buffer containing 50 mM Tris-HCl, pH 7.5, 500 mM NaCl, 1% Nonidet P-40, 0.25% sodium deoxycholate, 20 mM NaF, protease inhibitor mixture (Roche Applied Science), and phosphatase inhibitor mixtures I and II (Sigma). Tumor or cell lysates were boiled, subjected to 4–20% SDS-PAGE, and transferred to nitrocellulose membrane. Each membrane was blocked in Odyssey Blocking Buffer and incubated with custom-made mouse monoclonal anti-SMYD2 or mouse monoclonal anti-β-actin (Sigma) antibody followed by detection with IRDye680RD goat anti-mouse IgG on the Odyssey Imager.

[2] = target: T1, hDCAMKL3 (Homo sapiens, UniProt Q9C098); test: KINOMEscan; assay type: binding
T1 construct: purchased DiscoverX (KINOMEscan platform)

[3] = target: T2, hLKB1 (Homo sapiens, UniProt Q15831); test: KINOMEscan; assay type: binding
T2 construct: purchased DiscoverX (KINOMEscan platform)

[4] = target: T3, hMKK7 (Homo sapiens, UniProt O14733); test: KINOMEscan; assay type: binding
T3 construct: purchased DiscoverX

[5] = target: T4, hYES (Homo sapiens, UniProt P07947); test: KINOMEscan; assay type: binding
T4 construct: purchased DiscoverX

[6] = target: T5, hTRβ1 (Homo sapiens, UniProt P10828); test: Nuclear hormone receptor assay (Eurofins-CEREP); settings: read-out: Relative IC50
T5 construct: Eurofins-CEREP
T5 sequence (P10828 whole entry): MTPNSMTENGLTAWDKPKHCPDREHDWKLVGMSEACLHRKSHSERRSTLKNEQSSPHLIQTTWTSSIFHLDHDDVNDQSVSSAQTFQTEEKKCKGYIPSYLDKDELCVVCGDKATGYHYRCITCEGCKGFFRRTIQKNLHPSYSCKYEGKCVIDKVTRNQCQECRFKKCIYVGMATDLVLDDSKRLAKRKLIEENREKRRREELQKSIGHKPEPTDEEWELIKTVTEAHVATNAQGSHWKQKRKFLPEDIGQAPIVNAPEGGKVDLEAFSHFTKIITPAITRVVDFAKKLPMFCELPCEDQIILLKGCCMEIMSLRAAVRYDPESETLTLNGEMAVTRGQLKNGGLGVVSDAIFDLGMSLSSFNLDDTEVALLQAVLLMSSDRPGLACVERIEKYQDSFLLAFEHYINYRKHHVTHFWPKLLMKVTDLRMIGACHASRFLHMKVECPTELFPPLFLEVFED

T4 sequence (P07947 whole entry): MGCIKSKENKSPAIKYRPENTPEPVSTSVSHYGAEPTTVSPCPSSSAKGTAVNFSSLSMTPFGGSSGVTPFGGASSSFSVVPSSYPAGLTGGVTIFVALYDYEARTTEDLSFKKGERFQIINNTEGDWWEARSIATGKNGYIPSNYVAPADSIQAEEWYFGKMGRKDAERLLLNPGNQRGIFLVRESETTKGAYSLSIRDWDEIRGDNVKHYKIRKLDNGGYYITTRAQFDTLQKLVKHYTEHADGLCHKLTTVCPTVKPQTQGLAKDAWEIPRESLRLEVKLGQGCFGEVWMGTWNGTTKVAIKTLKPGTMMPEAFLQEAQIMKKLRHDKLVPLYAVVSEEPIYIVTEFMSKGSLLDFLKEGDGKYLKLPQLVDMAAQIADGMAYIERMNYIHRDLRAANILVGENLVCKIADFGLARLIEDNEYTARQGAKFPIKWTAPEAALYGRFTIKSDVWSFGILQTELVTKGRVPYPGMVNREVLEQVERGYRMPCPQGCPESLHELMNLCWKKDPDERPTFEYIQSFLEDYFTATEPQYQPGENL
T1 sequence (Q9C098 whole entry): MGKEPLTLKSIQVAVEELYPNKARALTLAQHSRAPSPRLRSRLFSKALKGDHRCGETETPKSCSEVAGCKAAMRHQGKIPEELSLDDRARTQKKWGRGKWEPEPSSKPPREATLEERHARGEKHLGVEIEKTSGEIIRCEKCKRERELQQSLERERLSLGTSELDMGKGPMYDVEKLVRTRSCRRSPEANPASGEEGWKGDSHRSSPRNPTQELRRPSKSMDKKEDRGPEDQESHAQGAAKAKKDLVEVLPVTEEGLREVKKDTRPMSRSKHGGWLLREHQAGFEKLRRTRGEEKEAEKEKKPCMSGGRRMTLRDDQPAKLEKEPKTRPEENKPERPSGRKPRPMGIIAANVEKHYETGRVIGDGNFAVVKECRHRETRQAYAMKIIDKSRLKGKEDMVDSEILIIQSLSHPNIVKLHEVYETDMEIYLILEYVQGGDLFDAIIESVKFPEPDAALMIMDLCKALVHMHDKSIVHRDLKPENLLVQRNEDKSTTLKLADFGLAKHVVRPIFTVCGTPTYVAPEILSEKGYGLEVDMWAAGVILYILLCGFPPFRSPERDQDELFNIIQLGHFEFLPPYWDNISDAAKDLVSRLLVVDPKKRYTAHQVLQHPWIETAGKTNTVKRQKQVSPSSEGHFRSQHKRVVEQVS
T2 sequence (Q15831 whole entry): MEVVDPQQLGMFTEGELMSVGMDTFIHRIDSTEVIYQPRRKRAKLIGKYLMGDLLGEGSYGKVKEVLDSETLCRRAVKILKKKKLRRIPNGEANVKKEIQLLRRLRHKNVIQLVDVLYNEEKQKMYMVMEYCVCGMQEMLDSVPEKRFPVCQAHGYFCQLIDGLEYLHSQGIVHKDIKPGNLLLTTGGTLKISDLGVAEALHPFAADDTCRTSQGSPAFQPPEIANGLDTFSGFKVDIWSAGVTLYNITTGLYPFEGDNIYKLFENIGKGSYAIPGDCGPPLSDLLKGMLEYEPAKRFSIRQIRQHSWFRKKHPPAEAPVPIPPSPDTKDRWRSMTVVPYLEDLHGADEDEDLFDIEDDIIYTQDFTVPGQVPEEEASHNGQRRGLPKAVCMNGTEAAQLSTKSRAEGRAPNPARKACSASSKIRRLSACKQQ
T3 sequence (O14733 whole entry): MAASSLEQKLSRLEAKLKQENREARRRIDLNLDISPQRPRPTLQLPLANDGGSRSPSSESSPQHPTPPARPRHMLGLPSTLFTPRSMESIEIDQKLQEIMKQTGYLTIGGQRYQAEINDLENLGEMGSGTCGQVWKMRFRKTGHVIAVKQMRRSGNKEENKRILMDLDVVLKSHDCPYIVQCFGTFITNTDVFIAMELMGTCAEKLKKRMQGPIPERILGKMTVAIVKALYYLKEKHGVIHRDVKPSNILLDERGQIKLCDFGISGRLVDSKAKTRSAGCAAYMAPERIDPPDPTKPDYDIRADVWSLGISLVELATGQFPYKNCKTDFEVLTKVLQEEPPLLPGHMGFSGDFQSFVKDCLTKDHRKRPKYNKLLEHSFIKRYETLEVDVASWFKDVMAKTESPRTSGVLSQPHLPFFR

Cc1cn(CCN2CCN(c3ccccc3-c3cc(C#N)cc(C(=O)NCCCN4CCCC4)c3)CC2)c2ccccc12 [LLY-507, 3-cyano-5-{2-[4-[2-(3-methylindol-1-yl)ethyl]piperazin-1-yl]-phenyl}-N-[(3-pyrrolidin-1-yl)propyl]benzamide] was tested, and the “time by which significant reductions in p53 Lys370 methylation occurred” value ([1]; 5 μM LLY-507, SMYD2-overexpressing KYSE-150) was ≤ 18 h, the “total levels of p53” value ([1]; KYSE-150 FLAG-SMYD2) was “not significantly affected” and the “reduction of Lys370 methylation on cytoplasmic p53” value ([1]; cytoplasmic fraction, KYSE-150 FLAG-SMYD2) was 50%. For the same molecule, the “reduction of Lys370 methylation on nuclear p53” value ([1]; nuclear fraction, KYSE-150 FLAG-SMYD2) was 25%, the IC50 [2] was > 20 µM and the IC50 [3] was > 20 µM. The IC50 [4] was > 20 µM, the IC50 [5] was > 20 µM and the IC50 [6] was > 10 µM.
